In patent publication US20130012389A1, “Substituted Pyridazines Having Herbicidal Action” (BASF SE, priority 2010, published 2013):

Tests used:
AMARE = assay: greenhouse experiment, post-emergence treatment, herbicidal activity against AMARE; format: in vivo, Amaranthus retroflexus; conditions: application rate 0.5 kg/ha, post-emergence method; scale from 0 to 100
Source text: (§1) The seeds of the test plants were sown separately for each species. For the post-emergence treatment, the test plants were first grown to a height of 3 to 15 cm, depending on the plant habit, and only then treated with the active ingredients which had been suspended or emulsified in water. For this purpose, the test plants were either sown directly and grown in the same containers, or they were first grown separately as seedlings and transplanted into the test containers a few days prior to treatment. Depending on the species, the plants were kept at 10-25° C. or 20-35° C. The test period extended over 2 to 4 weeks. During this time, the plants were tended, and their response to the individual treatments was evaluated. Evaluation was carried out using a scale from 0 to 100. 100 means no emergence of the plants, or complete destruction of at least the aerial moieties, and 0 means no damage, or normal course of growth. A good herbicidal activity is given at values of at least 70 and a very good herbicidal activity is given at values of at least 85. The plants used in the greenhouse experiments belonged to the following species: [table]

CHEAL = assay: greenhouse experiment, post-emergence treatment, herbicidal activity against CHEAL; format: in vivo, Chenopodium album; conditions: application rate 0.5 kg/ha, post-emergence method; scale from 0 to 100
Source text: as §1

O=c1oc2nccnc2c(O)c1-c1cc(Cl)cc(N2CCOCC2)c1C(F)(F)F [1-4, 7-[5-chloro-3-morpholino-2-(trifluoromethyl)phenyl]-8-hydroxy-pyrano[2,3-b]pyrazin-6-one] was tested, and the “herbicidal activity against AMARE” value (AMARE) was “very good herbicidal activity (a very good herbicidal activity is given at values of at least 85)” and the “herbicidal activity against CHEAL” value (CHEAL) was “very good herbicidal activity (a very good herbicidal activity is given at values of at least 85)”.
